Assays:
[1] = Excretion and mass balance in urine and feces; type: in vivo, human; details: single oral administration
From the text: Six healthy male volunteers, 25–45 years of age, with a mean body weight of 83.3 kg (range 64.5–94.4) and a mean body mass index of 26.9 kg/m^2 (range 20.2–29.9) participated in the study. […] The subject release criterion was defined as follows: the combined urine and fecal radioactivity excretion for two consecutive days should fall below 1% of the dose administered.
Detailed procedures on sample collection, storage, and shipment are described in Online Resource 1. […] Urine and feces collected from each subject were pooled at predose and every 24 h thereafter. Fecal homogenates were prepared by adding water (four times the feces weight) and homogenizing.
TRA analysis was carried out at ABC Laboratories. The radioactivity in plasma (duplicate per time point) and urine samples (triplicate per time point) was quantitated by direct counting in a Beckman LS6000SC or LS6500 liquid scintillation counter (PerkinElmer Life and Analytical Sciences, Boston, MA, USA). Whole blood (duplicate per time point) and fecal homogenate (triplicate per time point) samples were oxidized, and the resultant ^14CO2 was trapped in Carbosorb (Calgon Carbon Corporation, Pittsburgh, PA, USA) in combination with Permafluor, followed by liquid scintillation counting to determine the radioactivity. Individual samples were counted for 5 min for whole blood and fecal matrices, and 10 min for plasma and urine matrices. Predose blood, plasma, urine, and feces samples served as respective control samples to determine and subtract the background radioactivity in the analysis.
All urine voided was collected and stored in containers at 5±3 °C until the collection interval was completed. Subjects voided in the morning prior to study drug administration.
Multiple collections of urine during each collection interval from each individual subject were pooled. The urine samples from each collection interval were well mixed, accurately weighed, and assessed for its pH. A 100 ml sample from each collection interval from each subject was aliquoted into a separately labeled container to be sent to ABC Laboratories for radioactivity analysis. An approximately 10 ml sample from each collection interval from each subject on day 8 and each day thereafter was used for TRA analysis at Celerion (Lincoln, NE). All urine samples were kept frozen at −80 ± 15 °C.
Stool collections began approximately 24 h prior to drug administration until the end of the postdose sampling period. The 24 h predose samples were used as control samples for the radioactivity analysis and metabolite profiling. Feces were collected daily (24 h collection periods) until subjects were discharged from the clinical research unit.
All fecal samples were collected in polypropylene containers; toilet paper was collected separately. The weight of each sample was recorded. Multiple collections of feces during each collection interval from each individual subject were pooled. The feces samples were thoroughly homogenized with water (4X the weight of the feces). A 100 g sample was aliquoted into a separately labeled container to be sent to ABC Laboratories for radioactivity analysis. An approximately 10 g sample from each collection interval from each subject on day 8 and each day thereafter was used for TRA analysis at Celerion. All fecal homogenate samples were kept frozen at −80 ± 15 °C.

[2] = Metabolite profiling of urine (HPLC-radiochromatography); type: in vivo, human; details: 0–72 h pool
Description: Predose and 0–72-h urine samples (grand pool of all six subjects) were prepared. Urine samples (5 mL) were centrifuged, the supernatant was transferred to a 15-mL polypropylene tube and placed on ice; the residues were extracted with 1 mL of methanol and the methanol extracts were added to the supernatants. The combined extracts were evaporated under nitrogen and reconstituted in 0.2 mL of methanol. A 0.010-mL aliquot of the reconstituted solution was removed for determination of radioactivity, and the remainder was transferred to HPLC vials and stored at −80 °C.
A Finnigan Surveyor HPLC system (Thermo Fisher Scientific Inc., San Jose, CA, USA), consisting of an LC pump plus an autosampler and a UV–Vis plus detector, was used mostly for profiling (except the post-24-h plasma samples, which were analyzed using a Dionex HPLC system). A Phenomenex® Gemini® C18, 5-μm, 3.0 × 100-mm column (Phenomenex Inc., Torrance, CA, USA) was used along with a C-12 guard column (4 × 2 mm). LC conditions were as follows: solvent A was 10 mM ammonium bicarbonate in water (pH 10.0) and solvent B was 100% methanol and the flow rate was 0.8 mL/min. The following gradient was employed (B%): 0–5 min (20%), 32 min (42%), 33 min (60%), 55 min (70%), 56–60 min (95%), and 62–70 min (20%).
Reconstituted solvent extracts (0.050–0.10 mL) of plasma, urine, or feces were injected onto the HPLC column. The post-column eluate was split after UV detection into two streams (0.64 and 0.16 mL/min). The 0.64-mL stream was diverted to a fraction collector (Gilson FX 204; Gilson Medical Electronics, Middleton, WI, USA) to be collected in 96-well plates at 0.16 min/well (ScintiPlates; PerkinElmer Life Sciences, Shelton, CT, USA), and the 0.16-mL stream was directed to the mass spectrometer. The solvent in the 96-well plates was removed at 40 °C using a Genevac evaporator (Genevac, Inc., Stone Ridge, NY, USA).
The radioactivity counts per minute (CPM) in each well was determined using a MicroBeta scintillation counter (PerkinElmer Life and Analytical Sciences). The resulting CPM vs. time data were processed using Excel (Microsoft Corporation, Seattle, WA, USA). The CPM in each well was background-subtracted (using the average CPM values of the blank region of the HPLC run). Radiochromatographic profiles were obtained by plotting the resulting net CPM values against time after injection. Radioactive peaks in the chromatographic profiles were identified, and the radioactivity in each peak was summed and reported as a percentage of TRA in the HPLC run.

[3] = Metabolite characterization by LC/MS/MS in human plasma, urine, and feces; details: human plasma, urine, feces; LC/MS/MS
Description: The remaining eluate stream of 0.16 mL/min from the HPLC runs was diverted to the inlet of the mass spectrometer. The samples were analyzed using a heated electrospray ionization probe. Full-scan positive ion MS data were collected using Finnigan Exactive (MS^1) or Q-Exactive (MS^1 and MS^2) mass spectrometers (Thermo Fisher Scientific Inc.) Exact conditions are described in the Online Resource 3.
Finnigan Exactive or Q-Exactive mass spectrometers (Thermo Fisher Scientific Inc., San Jose, CA) were used to collect full scan MS^1 and MS^2 data.

elimination pathway N-demethylation, share of dose [1]: 8.3% | elimination pathway hydroxylation, share of dose [1]: 18.0% | elimination pathway methylation, share of dose [1]: 8.4% | elimination pathway amide bond hydrolysis, share of dose ([1]; estimated from 81% of urinary TRA and 5.4% of dose in urine): 4.4% | % of total radioactive dose [2]: <0.05% | % Distribution in matrix ([2]; % of urinary TRA): Trace levels | Matrix (in which the metabolite was found) [3]: P, U, F
SMILES: Cc1ccc(C(=O)Nc2ccc(CN3CCN(C)CC3)c(C(F)(F)F)c2)cc1C#Cc1cnc2cccnn12.Cl [Ponatinib, 3-(imidazo[1,2-b]pyridazin-3-ylethynyl)-4-methyl-N-(4-((4-methylpiperazin-1-yl)methyl)-3-(trifluoromethyl)phenyl)benzamide hydrochloride]
